{
  "source": "patent US6528521B2",
  "about": "“Treatment of anti-depression drug-induced sexual dysfunction with apomorphine” (Tap Pharmaceutical Products, Inc., priority 2000, dated 2003)",
  "tested_on": "male patients taking selective serotonin reuptake inhibitors",
  "test": "Crossover home-use trial of sublingual apomorphine in male patients taking SSRIs",
  "format": "in vivo, human",
  "conditions": "apomorphine versus placebo",
  "description": "A crossover study of 1500 patients in a home-use trial of apomorphine on male patients was performed.\nIn the crossover study, a 2-4 week baseline period was used to evaluate subjects. After this time, during an initial four week treatment period, subjects received either a placebo or apomorphine, without knowing whether or not they had received the active medication. The dosage was either 2, 4, 5 or 6 mg. This initial treatment period was followed by a 24-96 hour washout period, in which no medication was taken. Subsequently, a second four week treatment period, subjects who previously had received apomorphine, were given a placebo, and subjects who previously had received the placebo were given apomorphine. Subject were to attempt coitus once each week after taking a single tablet of apomorphine sublingually. After each attempt, the subject and their partner completed a sexual function questionnaire which was later evaluated and used for final statistical analysis. In the analysis, the data for patients receiving 2, 4, 5 or 6 mg dosages was pooled.",
  "data": [
    {"compound": "CN1CCc2cccc3c2[C@H]1Cc1ccc(O)c(O)c1-3", "note": "[apomorphine, (R)-5,6,6a,7-tetrahydro-6-methyl-4H-dibenzo-[de,g]quinoline-10,11-diol]", "values": [
      {"measurement": "patients on SSRI drugs able to have intercourse after taking apomorphine, relative to placebo", "value": "twice as many"}
    ]}
  ]
}
